Consider three compounds from ChEMBL document CHEMBL1129469, “Nonpeptide angiotensin II receptor antagonists: the next generation in antihypertensive therapy” (J Med Chem, 1996).

What is called IC50 is the concentration needed to halve the response being measured. A word on the pKB: it is −log10 of the KB, conventionally taken in molar units. By bioavailability is commonly meant the share of a dose that reaches the circulation, judged against a reference dose that is usually intravenous.

Data set [1] concerns Rattus norvegicus. Briefly: Dose dependent inhibition of pressor responses to Ang-II receptor in conscious normotensive rat by intraduodenal administration. The format is functional. To be noted: read-out: ID50 (the source's name).
For data set [2], the system named is Rattus norvegicus. The data set can be described thus: Dose dependent inhibition of pressor responses to Ang-II in conscious normotensive rat by bolus intravenous administration. It is filed as functional. The note with it: read-out: ID50 (the source's name).
The test system of the next data set is HASMC. Briefly: Inhibitory activity against Ang II-induced proliferation of human aortic smooth muscle cells in a dose-dependent manner. It is filed as functional, cell-based.
The species entered for data set [3] is Oryctolagus cuniculus. The data set can be described thus: (§1) Compound was tested for its antagonistic activity against angiotensin II-induced contractions in rabbit aorta. The format is functional, organism-based.
Data set [4] is filed under the species Oryctolagus cuniculus. Described as §1. It is filed as functional.
Data set [5] concerns Rattus norvegicus. Briefly: Oral effective dose required for inhibition of Ang II pressor response in conscious rat. It is filed as functional.
The nature of data set [6]: Oral bioavailability in rat. It is filed as ADME, organism-based. To be noted: in vivo.
The species entered for data set [7] is Rattus norvegicus. Briefly: pA2 value was evaluated against angiotensin II-induced aldosterone release in rat adrenal cortical cells. It is filed as functional, cell-based. The note with it: read-out: pA2 (converted).
Data set [8] in a line: Oral bioavailability was evaluated in rat by oral administration. The format is ADME, organism-based. To be noted: in vivo.
The nature of data set [9]: Oral bioavailability was evaluated in rhesus monkey. It is filed as ADME, organism-based, Macaca mulatta. The note with it: in vivo.
Data set [10] deals with Rattus norvegicus. Briefly: Intravenous effective dose required for inhibition of Ang II pressor response in conscious rat. It is filed as functional.

For the compound `CCCCc1ncc(/C=C(\Cc2cccs2)C(=O)O)n1Cc1ccc(C(=O)O)cc1` [EPROSARTAN], the ED50 was determined as 5.5 mg/kg in the data set with Rattus norvegicus [1] and 0.08 mg/kg with Rattus norvegicus [2].

In the case of `CCCCC1=NC2(CCCC2)C(=O)N1Cc1ccc(-c2ccccc2-c2nnn[nH]2)cc1` [IRBESARTAN], the values for the IC50 with HASMC and in the data set filed under Oryctolagus cuniculus [3] were 320 nM and 4 nM, respectively.

Take `CCc1nc2c(C)cc(C)nc2n1Cc1ccc(-c2ccccc2-c2nn[nH]n2)cc1` [L-158809]: the Kb is 0.28 nM in the data set listed under Oryctolagus cuniculus [4] and 0.0316 nM in the data set listed under Rattus norvegicus [7]. The compound further gave a negative-log KB (pKB) in the data set filed under Oryctolagus cuniculus [4] of 9.3. The ED50 with Rattus norvegicus [5] came out at 0.023 mg/kg; in the data set with Rattus norvegicus [10] it was 0.029 mg/kg. The bioavailability in data set [6] stood at 100%; in data set [8], 70%; in data set [9], 32%.
